Consider 29 compounds from patent US7932270B2 (Cytokinetics, Inc., priority 2006, dated 2011).

T1 sequence (P02607 2-151): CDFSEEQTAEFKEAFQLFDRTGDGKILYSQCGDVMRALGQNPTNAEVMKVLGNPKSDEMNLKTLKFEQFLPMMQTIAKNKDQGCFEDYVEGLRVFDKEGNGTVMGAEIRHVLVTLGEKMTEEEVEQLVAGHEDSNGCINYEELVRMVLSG
T1 sequence (P10587 84-789): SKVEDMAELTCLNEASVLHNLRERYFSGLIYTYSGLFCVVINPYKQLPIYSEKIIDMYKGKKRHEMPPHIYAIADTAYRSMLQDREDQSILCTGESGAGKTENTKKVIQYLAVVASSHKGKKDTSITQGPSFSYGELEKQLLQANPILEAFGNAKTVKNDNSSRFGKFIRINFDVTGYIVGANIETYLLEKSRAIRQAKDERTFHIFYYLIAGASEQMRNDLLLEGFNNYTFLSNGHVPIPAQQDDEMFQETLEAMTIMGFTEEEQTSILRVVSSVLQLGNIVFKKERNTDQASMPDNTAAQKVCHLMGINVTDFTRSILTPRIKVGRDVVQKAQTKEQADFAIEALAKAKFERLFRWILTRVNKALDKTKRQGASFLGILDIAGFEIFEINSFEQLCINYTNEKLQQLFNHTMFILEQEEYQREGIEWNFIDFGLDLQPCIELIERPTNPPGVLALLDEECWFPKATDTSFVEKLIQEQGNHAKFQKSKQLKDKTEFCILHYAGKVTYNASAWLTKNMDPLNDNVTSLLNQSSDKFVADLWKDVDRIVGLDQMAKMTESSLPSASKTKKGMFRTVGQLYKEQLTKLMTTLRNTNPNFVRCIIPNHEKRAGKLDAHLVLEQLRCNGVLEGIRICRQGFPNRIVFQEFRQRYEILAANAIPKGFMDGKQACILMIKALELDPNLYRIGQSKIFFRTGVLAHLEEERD

The experiment addresses T1, chicken gizzard smooth muscle myosin subfragment-1 chemically crosslinked to cardiac or skeletal actin (Gallus gallus, UniProt P10587).
T1 construct: chicken gizzard smooth muscle myosin subfragment-1; from tissue; host or cells: chicken gizzard
Kind of experiment: Smooth muscle myosin ATPase dose response assay (pyruvate kinase/horseradish peroxidase/pyruvate oxidase-coupled, amplex red fluorescence). The experiment is classed as biochemical. To be noted: read-out: IC50 Arithmetic Mean. In short, it runs like this: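 ATPase monitored by amplex red fluorescence (ex 480/em 615 nm) via pyruvate oxidase/HRP coupling, pH 7.00, ATP 0.15 mM. Enzyme: smooth muscle S1-actin crosslinked conjugate, amount set empirically by titration. Dose-response fitted with 4-parameter Hill equation for IC50.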
As a reminder, the IC50 is the concentration at which inhibition is half-maximal. Take `C[C@H](N)C(=O)N1CCCC1CNC(=O)c1cc(F)c(-c2cc[nH]n2)nc1NCCc1cccc(F)c1` (stereo partly drawn) [N-{[(2R)-1-((2S)-2-aminopropanoyl)pyrrolidin-2-yl]methyl}(5-fluoro-2-{[2-(3-fluorophenyl)ethyl]amino}-6-pyrazol-3-yl(3-pyridyl))carboxamide]: the IC50 turned out to be 314 nM. For `C[C@H](N)C(=O)N1CCC[C@@H]1CNC(=O)c1ccc(-c2ccccc2C#N)nc1NCCc1cccc(F)c1` [N-{[(2R)-1-((2S)-2-aminopropanoyl)pyrrolidin-2-yl]methyl}(6-(2-cyanophenyl)-2-{[2-(3-fluorophenyl)ethyl]amino}(3-pyridyl))carboxamide], the IC50 was 53 nM. Under `CNC(=O)N1CCC[C@@H]1CNC(=O)c1ccc(-c2ccccc2C#N)nc1NCCc1cccc(F)c1` [N-{[(2R)-1-(N-methylcarbamoyl)pyrrolidin-2-yl]methyl}(6-(2-cyanophenyl)-2-{[2-(3-fluorophenyl)ethyl]amino}(3-pyridyl))carboxamide] stands 307 nM; under `CCS(=O)(=O)N1CCNC[C@@H]1CNC(=O)c1ccc(-c2ccccc2C#N)nc1NCCc1cccc(F)c1` [N-{[(2R)-1-(ethylsulfonyl)piperazin-2-yl]methyl}(6-(2-cyanophenyl)-2-{[2-(3-fluorophenyl)ethyl]amino}(3-pyridyl))carboxamide], 16800 nM. Regarding `CS(=O)(=O)N1CC[C@@H]1CNC(=O)c1ccc(-c2ccccc2C#N)nc1NCCc1cccc(F)c1` [N-{[(2R)-1-(methylsulfonyl)azetidin-2-yl]methyl}(6-(2-cyanophenyl)-2-{[2-(3-fluorophenyl)ethyl]amino}(3-pyridyl))carboxamide], the IC50 is 1520 nM.

Turning to `CS(=O)(=O)N1CCC[C@@H]1CNC(=O)c1ccc(-c2ccccc2C#N)nc1NCCc1cccc(F)c1` [N-{[(2R)-1-(methylsulfonyl)pyrrolidin-2-yl]methyl}(6-(2-cyanophenyl)-2-{[2-(3-fluorophenyl)ethyl]amino}(3-pyridyl))carboxamide], the IC50 came to 1450 nM. As for `N#Cc1ccccc1-c1ccc(C(=O)NC[C@@H]2CN(CCN)CC(=O)N2)c(NCCc2cccc(F)c2)n1` [N-{[(2R)-4-(2-aminoethyl)-6-oxopiperazin-2-yl]methyl}(6-(2-cyanophenyl)-2-{[2-(3-fluorophenyl)ethyl]amino}(3-pyridyl))carboxamide], the figure is 8470 nM. Take `N#Cc1ccccc1-c1ccc(C(=O)NC[C@@H]2CN(CCCN)CC(=O)N2)c(NCCc2cccc(F)c2)n1` [N-{[(2R)-4-(3-aminopropyl)-6-oxopiperazin-2-yl]methyl}(6-(2-cyanophenyl)-2-{[2-(3-fluorophenyl)ethyl]amino}(3-pyridyl))carboxamide]: the IC50 amounted to 4520 nM. Under `N#Cc1ccccc1-c1ccc(C(=O)NC[C@@H]2CCCCN2C(=O)CN)c(NCCc2cccc(F)c2)n1` [N-{[(2S)-1-(2-aminoacetyl)(2-piperidyl)]methyl}(6-(2-cyanophenyl)-2-{[2-(3-fluorophenyl)ethyl]amino}(3-pyridyl))carboxamide] stands 74 nM; under `CN1CCN(C(=O)CN)[C@@H](CNC(=O)c2ccc(-c3ccccc3C#N)nc2NCCc2cccc(F)c2)C1` [N-{[(2S)-1-(2-aminoacetyl)-4-methylpiperazin-2-yl]methyl}(6-(2-cyanophenyl)-2-{[2-(3-fluorophenyl)ethyl]amino}(3-pyridyl))carboxamide], 1280 nM; under `N#Cc1ccccc1-c1ccc(C(=O)NC[C@@H]2CCCN2C(=O)CN)c(NCCc2cccc(F)c2)n1` [N-{[(2S)-1-(2-aminoacetyl)pyrrolidin-2-yl]methyl}(6-(2-cyanophenyl)-2-{[2-(3-fluorophenyl)ethyl]amino}(3-pyridyl))carboxamide], 995 nM. Under `N#Cc1ccccc1-c1ccc(C(=O)NC[C@@H]2CCC(=O)N2CCN)c(NCCc2cccc(F)c2)n1` [N-{[(2S)-1-(2-aminoethyl)-5-oxopyrrolidin-2-yl]methyl}(6-(2-cyanophenyl)-2-{[2-(3-fluorophenyl)ethyl]amino}(3-pyridyl))carboxamide] stands 917 nM; under `N#Cc1ccccc1-c1ccc(C(=O)NC[C@@H]2CCCCN2C(=O)CCN)c(NCCc2cccc(F)c2)n1` [N-{[(2S)-1-(3-aminopropanoyl)(2-piperidyl)]methyl}(6-(2-cyanophenyl)-2-{[2-(3-fluorophenyl)ethyl]amino}(3-pyridyl))carboxamide], 109 nM. Under `CN1CCN(C(=O)CCN)[C@@H](CNC(=O)c2ccc(-c3ccccc3C#N)nc2NCCc2cccc(F)c2)C1` [N-{[(2S)-1-(3-aminopropanoyl)-4-methylpiperazin-2-yl]methyl}(6-(2-cyanophenyl)-2-{[2-(3-fluorophenyl)ethyl]amino}(3-pyridyl))carboxamide] stands 2390 nM. Regarding `N#Cc1ccccc1-c1ccc(C(=O)NC[C@@H]2CCCN2C(=O)CCN)c(NCCc2cccc(F)c2)n1` [N-{[(2S)-1-(3-aminopropanoyl)pyrrolidin-2-yl]methyl}(6-(2-cyanophenyl)-2-{[2-(3-fluorophenyl)ethyl]amino}(3-pyridyl))carboxamide], the IC50 came out at 1860 nM. As for `N#Cc1ccccc1-c1ccc(C(=O)NC[C@@H]2CCC(=O)N2CCCN)c(NCCc2cccc(F)c2)n1` [N-{[(2S)-1-(3-aminopropyl)-5-oxopyrrolidin-2-yl]methyl}(6-(2-cyanophenyl)-2-{[2-(3-fluorophenyl)ethyl]amino}(3-pyridyl))carboxamide], the figure is 431 nM; as for `CN1CCN(C(=O)CCCN)[C@@H](CNC(=O)c2ccc(-c3ccccc3C#N)nc2NCCc2cccc(F)c2)C1` [N-{[(2S)-1-(4-aminobutanoyl)-4-methylpiperazin-2-yl]methyl}(6-(2-cyanophenyl)-2-{[2-(3-fluorophenyl)ethyl]amino}(3-pyridyl))carboxamide], 2320 nM.

`N#Cc1ccccc1-c1ccc(C(=O)NC[C@@H]2CCCN2C(=O)CCCN)c(NCCc2cccc(F)c2)n1` [N-{[(2S)-1-(4-aminobutanoyl)pyrrolidin-2-yl]methyl}(6-(2-cyanophenyl)-2-{[2-(3-fluorophenyl)ethyl]amino}(3-pyridyl))carboxamide]: the IC50 turned out to be 1270 nM. Under `CS(=O)(=O)N1CCCC[C@H]1CNC(=O)c1ccc(-c2ccccc2C#N)nc1NCCc1cccc(F)c1` [N-{[(2S)-1-(methylsulfonyl)(2-piperidyl)]methyl}(6-(2-cyanophenyl)-2-{[2-(3-fluorophenyl)ethyl]amino}(3-pyridyl))carboxamide] stands 1630 nM; under `CN1CCN(C(=O)CN)C[C@@H]1CNC(=O)c1ccc(-c2ccccc2C#N)nc1NCCc1cccc(F)c1` [N-{[(2S)-4-(2-aminoacetyl)-1-methylpiperazin-2-yl]methyl}(6-(2-cyanophenyl)-2-{[2-(3-fluorophenyl)ethyl]amino}(3-pyridyl))carboxamide], 6970 nM; under `N#Cc1ccccc1-c1ccc(C(=O)NC[C@H]2CN(C(=O)CN)CCN2)c(NCCc2cccc(F)c2)n1` [N-{[(2S)-4-(2-aminoacetyl)piperazin-2-yl]methyl}(6-(2-cyanophenyl)-2-{[2-(3-fluorophenyl)ethyl]amino}(3-pyridyl))carboxamide], 8880 nM.

Turning to `N#Cc1ccccc1-c1ccc(C(=O)NC[C@H]2CN(CCN)CC(=O)N2)c(NCCc2cccc(F)c2)n1` [N-{[(2S)-4-(2-aminoethyl)-6-oxopiperazin-2-yl]methyl}(6-(2-cyanophenyl)-2-{[2-(3-fluorophenyl)ethyl]amino}(3-pyridyl))carboxamide], the IC50 was 623 nM.

For `CN1CCN(C(=O)CCN)C[C@@H]1CNC(=O)c1ccc(-c2ccccc2C#N)nc1NCCc1cccc(F)c1` [N-{[(2S)-4-(3-aminopropanoyl)-1-methylpiperazin-2-yl]methyl}(6-(2-cyanophenyl)-2-{[2-(3-fluorophenyl)ethyl]amino}(3-pyridyl))carboxamide], the IC50 was 17000 nM. On to `N#Cc1ccccc1-c1ccc(C(=O)NC[C@H]2CN(C(=O)CCN)CCN2)c(NCCc2cccc(F)c2)n1` [N-{[(2S)-4-(3-aminopropanoyl)piperazin-2-yl]methyl}(6-(2-cyanophenyl)-2-{[2-(3-fluorophenyl)ethyl]amino}(3-pyridyl))carboxamide], for which the half-inhibitory concentration (IC50) is 11200 nM.

For the compound `N#Cc1ccccc1-c1ccc(C(=O)NC[C@H]2CN(CCCN)CC(=O)N2)c(NCCc2cccc(F)c2)n1` [N-{[(2S)-4-(3-aminopropyl)-6-oxopiperazin-2-yl]methyl}(6-(2-cyanophenyl)-2-{[2-(3-fluorophenyl)ethyl]amino}(3-pyridyl))carboxamide], the IC50 came out at 2810 nM. Turning to `CN1CCN(C(=O)CCCN)C[C@@H]1CNC(=O)c1ccc(-c2ccccc2C#N)nc1NCCc1cccc(F)c1` [N-{[(2S)-4-(4-aminobutanoyl)-1-methylpiperazin-2-yl]methyl}(6-(2-cyanophenyl)-2-{[2-(3-fluorophenyl)ethyl]amino}(3-pyridyl))carboxamide], the IC50 was 6720 nM. For `N#Cc1ccccc1-c1ccc(C(=O)NC[C@H]2CN(C(=O)CCCN)CCN2)c(NCCc2cccc(F)c2)n1` [N-{[(2S)-4-(4-aminobutanoyl)piperazin-2-yl]methyl}(6-(2-cyanophenyl)-2-{[2-(3-fluorophenyl)ethyl]amino}(3-pyridyl))carboxamide], the IC50 stood at 12400 nM. Under `N#Cc1ccccc1-c1ccc(C(=O)NC[C@H]2CCCN(C(=O)CN)C2)c(NCCc2cccc(F)c2)n1` [N-{[(3R)-1-(2-aminoacetyl)(3-piperidyl)]methyl}(6-(2-cyanophenyl)-2-{[2-(3-fluorophenyl)ethyl]amino}(3-pyridyl))carboxamide] stands 246 nM. With `N#Cc1ccccc1-c1ccc(C(=O)NC[C@H]2CCCN(C(=O)CCN)C2)c(NCCc2cccc(F)c2)n1` [N-{[(3R)-1-(3-aminopropanoyl)(3-piperidyl)]methyl}(6-(2-cyanophenyl)-2-{[2-(3-fluorophenyl)ethyl]amino}(3-pyridyl))carboxamide], the half-inhibitory concentration (IC50) was 173 nM.
